According to patent publication US11912686B2 (Gilead Sciences, Inc., priority 2020, dated 2024):

Each compound was assayed against human LPAR1 (Homo sapiens (Human), UniProt Q92633) (assay: LPAR1 intracellular calcium mobilization assay (antagonist mode, FLIPR)). Settings: CHO-K1 EDG2 cells expressing human LPAR1, LPA 18:2 at EC80 (100 nM), test compound 0.5 nM to 10 μM.
Assay type: cell-based

Sequence of human LPAR1 (Q92633 whole entry): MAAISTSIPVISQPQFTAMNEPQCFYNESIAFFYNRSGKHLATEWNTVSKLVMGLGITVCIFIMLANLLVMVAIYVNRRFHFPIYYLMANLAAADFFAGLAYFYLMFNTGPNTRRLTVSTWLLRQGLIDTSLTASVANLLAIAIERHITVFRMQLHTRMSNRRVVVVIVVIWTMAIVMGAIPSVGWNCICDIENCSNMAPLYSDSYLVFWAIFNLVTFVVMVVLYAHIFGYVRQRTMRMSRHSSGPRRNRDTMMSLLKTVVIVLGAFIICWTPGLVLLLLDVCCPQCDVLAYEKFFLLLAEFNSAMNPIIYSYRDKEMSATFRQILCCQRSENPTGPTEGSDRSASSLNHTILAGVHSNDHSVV

Structure (SMILES)	EC50
Cc1ncc(F)cc1[C@@H](C)OC(=O)Nc1c(-c2ccc(NC(=O)C34CC(C#N)(C3)C4)cn2)nnn1C [Compound 178, (R)-1-(5-fluoro-2-methylpyridin-3-yl)ethyl (4-(5-(3-cyanobicyclo[1.1.1]pentane-1-carboxamido)pyridin-2-yl)-1-methyl-1H-1,2,3-triazol-5-yl)carbamate]	140 nM
C[C@@H](OC(=O)Nc1c(-c2ccc(NC(=O)[C@H]3C[C@@H](F)C3)cn2)nnn1C)c1cccnc1Cl [Compound 71, (R)-1-(2-chloropyridin-3-yl)ethyl (4-(5-((1s,3S)-3-fluorocyclobutane-1-carboxamido)pyridin-2-yl)-1-methyl-1H-1,2,3-triazol-5-yl)carbamate]	89.7 nM
C[C@@H](OC(=O)Nc1c(-c2ccc(NC(=O)C3CN(CC(F)(F)F)C3)cn2)nnn1C)c1cccnc1Cl [Compound 309, (R)-1-(2-chloropyridin-3-yl)ethyl (1-methyl-4-(5-(1-(2,2,2-trifluoroethyl)azetidine-3-carboxamido)pyridin-2-yl)-1H-1,2,3-triazol-5-yl)carbamate]	133 nM
C[C@@H](OC(=O)Nc1c(-c2ccc(NC(=O)C3(C#N)CC3)c(F)n2)nnn1C)c1cccnc1Cl [Compound 316, (R)-1-(2-chloropyridin-3-yl)ethyl (4-(5-(1-cyanocyclopropane-1-carboxamido)-6-fluoropyridin-2-yl)-1-methyl-1H-1,2,3-triazol-5-yl)carbamate]	41.6 nM
C[C@@H](OC(=O)Nc1c(-c2cnc(NC(=O)C34CC(F)(C3)C4)cn2)nnn1C)c1cc(F)cnc1Cl [Compound 333, (R)-1-(2-chloro-5-fluoropyridin-3-yl)ethyl (4-(5-(3-fluorobicyclo[1.1.1]pentane-1-carboxamido)pyrazin-2-yl)-1-methyl-1H-1,2,3-triazol-5-yl)carbamate]	219 nM
C[C@@H](OC(=O)Nc1c(-c2ccc(NC(=O)[C@H]3C[C@H](F)C3)cn2)nnn1C)c1cccnc1Cl [Compound 62, (R)-1-(2-chloropyridin-3-yl)ethyl (4-(5-((1r,3R)-3-fluorocyclobutane-1-carboxamido)pyridin-2-yl)-1-methyl-1H-1,2,3-triazol-5-yl)carbamate]	110 nM
C[C@@H](OC(=O)Nc1c(-c2ccc(NC(=O)[C@@H]3C[C@H]3C(F)(F)F)cn2)nnn1C)c1cc(F)cnc1F (mixture of isomers) [Compound 209, (R)-1-(2,5-difluoropyridin-3-yl)ethyl (1-methyl-4-(5-((1RS,2RS)-2-(trifluoromethyl)cyclopropane-1-carboxamido)pyridin-2-yl)-1H-1,2,3-triazol-5-yl)carbamate]	17.7 nM
C[C@@H](OC(=O)Nc1c(-c2ccc(NC(=O)C34CC(F)(C3)C4)cn2)nnn1C)c1cccnc1F [Compound 173, (R)-1-(2-fluoropyridin-3-yl)ethyl (4-(5-(3-fluorobicyclo[1.1.1]pentane-1-carboxamido)pyridin-2-yl)-1-methyl-1H-1,2,3-triazol-5-yl)carbamate]	181 nM
C[C@@H](OC(=O)Nc1c(-c2ccc(NC(=O)C3(C#N)CCNC3)cn2)nnn1C)c1cc(F)cnc1F (stereo partly drawn) [Compound 302, (R)-1-(2,5-difluoropyridin-3-yl)ethyl (4-(5-(3-cyanopyrrolidine-3-carboxamido)pyridin-2-yl)-1-methyl-1H-1,2,3-triazol-5-yl)carbamate]	669 nM
C[C@@H](OC(=O)Nc1c(-c2ccc(NC(=O)C34CC(F)(C3)C4)cn2)nnn1C)c1cccnc1Cl [Compound 70, (R)-1-(2-chloropyridin-3-yl)ethyl (4-(5-(3-fluorobicyclo[1.1.1]pentane-1-carboxamido)pyridin-2-yl)-1-methyl-1H-1,2,3-triazol-5-yl)carbamate]	47.8 nM
C[C@@H](OC(=O)Nc1c(-c2ccc(NC=O)cn2)nnn1C)c1cccnc1Cl [Compound 16, (R)-1-(2-chloropyridin-3-yl)ethyl (4-(5-formamidopyridin-2-yl)-1-methyl-1H-1,2,3-triazol-5-yl)carbamate]	2180 nM
C[C@@H](OC(=O)Nc1c(-c2ncc(NC(=O)[C@]3(C#N)C[C@H]3C(F)F)cn2)nnn1C)c1cc(F)cnc1Cl [Compound 286, (R)-1-(2-chloro-5-fluoropyridin-3-yl)ethyl (4-(5-((1R,2R)-1-cyano-2-(difluoromethyl)cyclopropane-1-carboxamido)pyrimidin-2-yl)-1-methyl-1H-1,2,3-triazol-5-yl)carbamate]	104 nM
C[C@@H](OC(=O)Nc1c(-c2ncc(NC(=O)c3ccc(Cl)nc3)cc2F)nnn1C)c1cc(F)cnc1F [Compound 338, (R)-1-(2,5-difluoropyridin-3-yl)ethyl (4-(5-(6-chloronicotinamido)-3-fluoropyridin-2-yl)-1-methyl-1H-1,2,3-triazol-5-yl)carbamate]	132 nM
C[C@@H](OC(=O)Nc1c(-c2ccc(NC(=O)C3(F)CC(F)C3)cn2)nnn1C)c1cccnc1Cl (stereo partly drawn) [Compound 131, (R)-1-(2-chloropyridin-3-yl)ethyl (4-(5-(1,3-difluorocyclobutane-1-carboxamido)pyridin-2-yl)-1-methyl-1H-1,2,3-triazol-5-yl)carbamate]	260 nM
C[C@@H](OC(=O)Nc1c(-c2ccc(NC(=O)c3ccc(C(F)(F)F)nc3)cn2)nnn1C)c1cc(F)cnc1Cl [Compound 288, (R)-1-(2-chloro-5-fluoropyridin-3-yl)ethyl (1-methyl-4-(5-(6-(trifluoromethyl)nicotinamido)pyridin-2-yl)-1H-1,2,3-triazol-5-yl)carbamate]	33.5 nM
C[C@@H](OC(=O)Nc1c(-c2ccc(NC(=O)C3CNC3)cn2)nnn1C)c1cccnc1Cl [Compound 38, (R)-1-(2-chloropyridin-3-yl)ethyl (4-(5-(azetidine-3-carboxamido)pyridin-2-yl)-1-methyl-1H-1,2,3-triazol-5-yl)carbamate]	10000 nM
C[C@@H](OC(=O)Nc1c(-c2ccc(NC(=O)C34CCC(O)(CC3)CC4)cn2)nnn1C)c1cccnc1Cl [Compound 115, (R)-1-(2-chloropyridin-3-yl)ethyl (4-(5-(4-hydroxybicyclo[2.2.2]octane-1-carboxamido)pyridin-2-yl)-1-methyl-1H-1,2,3-triazol-5-yl)carbamate]	654 nM
C[C@@H](OC(=O)Nc1c(-c2ccc(NC(=O)C3CC4(C3)CC3(CCC3)C4)cn2)nnn1C)c1cccnc1Cl [Compound 77, (R)-1-(2-chloropyridin-3-yl)ethyl (4-(5-(dispiro[3.1.36.14]decane-2-carboxamido)pyridin-2-yl)-1-methyl-1H-1,2,3-triazol-5-yl)carbamate]	25.5 nM
C[C@@H](OC(=O)Nc1c(-c2ccc(NC(=O)[C@@H]3C[C@H]3C(F)F)cn2)nnn1C)c1cc(F)cnc1F (mixture of isomers) [Compound 216, (R)-1-(2,5-difluoropyridin-3-yl)ethyl (4-(5-((1RS,2RS)-2-(difluoromethyl)cyclopropane-1-carboxamido)pyridin-2-yl)-1-methyl-1H-1,2,3-triazol-5-yl)carbamate]	22.4 nM
C[C@@H](OC(=O)Nc1c(-c2ccc(NC(=O)C3CC4(CC(F)C4)C3)cn2)nnn1C)c1cccnc1Cl (stereo partly drawn) [Compound 81, (R)-1-(2-chloropyridin-3-yl)ethyl (4-(5-(6-fluorospiro[3.3]heptane-2-carboxamido)pyridin-2-yl)-1-methyl-1H-1,2,3-triazol-5-yl)carbamate]	22.8 nM
C[C@@H](OC(=O)Nc1c(-c2ccc(NC(=O)c3ccnc(C(F)(F)F)c3F)cn2)nnn1C)c1cc(F)cnc1F [Compound 261, (R)-1-(2,5-difluoropyridin-3-yl)ethyl (4-(5-(3-fluoro-2-(trifluoromethyl)isonicotinamido)pyridin-2-yl)-1-methyl-1H-1,2,3-triazol-5-yl)carbamate]	11.9 nM
C[C@@H](OC(=O)Nc1c(-c2ccc(NC(=O)C3(C)COC3)cn2)nnn1C)c1cccnc1Cl [Compound 97, (R)-1-(2-chloropyridin-3-yl)ethyl (1-methyl-4-(5-(3-methyloxetane-3-carboxamido)pyridin-2-yl)-1H-1,2,3-triazol-5-yl)carbamate]	395 nM
C[C@@H](OC(=O)Nc1c(-c2ccc(NC(=O)[C@@H]3C[C@@H]3F)cn2)nnn1C)c1cccnc1Cl [Compound 53, (R)-1-(2-chloropyridin-3-yl)ethyl (4-(5-((1S,2S)-2-fluorocyclopropane-1-carboxamido)pyridin-2-yl)-1-methyl-1H-1,2,3-triazol-5-yl)carbamate]	1460 nM
C[C@@H](OC(=O)Nc1c(-c2ccc(NC(=O)c3ccc(F)nc3)cn2)nnn1C)c1cc(F)cnc1F [Compound 220, (R)-1-(2,5-difluoropyridin-3-yl)ethyl (4-(5-(6-fluoronicotinamido)pyridin-2-yl)-1-methyl-1H-1,2,3-triazol-5-yl)carbamate]	158 nM
Cc1ncc(F)cc1[C@@H](C)OC(=O)Nc1c(-c2ccc(NC(=O)[C@@H]3CC3(F)F)cn2)nnn1C [Compound 180, (R)-1-(5-fluoro-2-methylpyridin-3-yl)ethyl (4-(5-((S)-2,2-difluorocyclopropane-1-carboxamido)pyridin-2-yl)-1-methyl-1H-1,2,3-triazol-5-yl)carbamate]	123 nM
C[C@@H](OC(=O)Nc1c(-c2ccc(NC(=O)C3(C(F)(F)F)CC(=O)C3)cn2)nnn1C)c1cccnc1Cl [Compound 120, (R)-1-(2-chloropyridin-3-yl)ethyl (1-methyl-4-(5-(3-oxo-1-(trifluoromethyl)cyclobutane-1-carboxamido)pyridin-2-yl)-1H-1,2,3-triazol-5-yl)carbamate]	2470 nM
C[C@@H](OC(=O)Nc1c(-c2ccc(NC(=O)C3CC(F)(F)C3)cn2)nnn1C)c1cccnc1F [Compound 171, (R)-1-(2-fluoropyridin-3-yl)ethyl (4-(5-(3,3-difluorocyclobutane-1-carboxamido)pyridin-2-yl)-1-methyl-1H-1,2,3-triazol-5-yl)carbamate]	140 nM
C[C@@H](OC(=O)Nc1c(-c2cnc(NC(=O)C3(C#N)CC3)cn2)nnn1C)c1cc(F)cnc1F [Compound 328, (R)-1-(2,5-difluoropyridin-3-yl)ethyl (4-(5-(1-cyanocyclopropane-1-carboxamido)pyrazin-2-yl)-1-methyl-1H-1,2,3-triazol-5-yl)carbamate]	1130 nM
